The text below walks through data of patent publication US10745693B2, “Methods of designing programmable inducible promoters” (WISCONSIN ALUMNI RESEARCH FOUNDATION, priority 2017, dated 2020).

The structures appear in SMILES notation.

For the experiment, the system named is PmeR. The experiment can be described thus: Induction assay of PmeR-enriched promoter library driving GFP in E. coli DH10B (flow cytometer). The settings on record: 300 uM naringenin, over-night growth, E. coli DH10B population repressed by PmeR. It is filed as cell-based, Pseudomonas syringae. The text has this: In this example, the allosteric transcription factor was PmeR (repressor) and the inducer molecule was naringenin.
The post in vitro enrichment of polynucleotides (with PmeR protein) was cloned into a vector to drive the expression of a green fluorescent protein using the Golden Gate assembly method. Following the transformation and over-night growth in E. coli DH10B, the fluorescent intensity distribution was profiled using a flow cytometer with 488 nm laser and 510 (25) nm filter. The delivery of the transcription repressor was through a second vector containing constitutively expressing PmeR protein. The fluorescent intensity distribution shift was captured with a flow cytometer after over-night growth. A decrease of overall fluorescent intensity was observed. The induction assay was conducted with the addition of 300 uM naringenin to the previous E. coli population with decreased fluorescence.
A general note: In flow cytometry, cells or beads pass a laser one at a time.

With `O=C1C[C@@H](c2ccc(O)cc2)Oc2cc(O)cc(O)c21` [naringenin], the “Change of fluorescent intensity distribution on induction” value is “overall increase in fluorescent intensity”.
